Experimental data as given in PMC11944677, “Integrating Surface Plasmon Resonance and Docking Analysis for Mechanistic Insights of Tryptase Inhibitors” (Molecules, 2025).

Molecular target: T1, human tryptase beta-2 (hTPSB2) (Homo sapiens, UniProt P20231)
T1 construct: gene TPSB2
Test: biochemical

T1 sequence (P20231 31-275): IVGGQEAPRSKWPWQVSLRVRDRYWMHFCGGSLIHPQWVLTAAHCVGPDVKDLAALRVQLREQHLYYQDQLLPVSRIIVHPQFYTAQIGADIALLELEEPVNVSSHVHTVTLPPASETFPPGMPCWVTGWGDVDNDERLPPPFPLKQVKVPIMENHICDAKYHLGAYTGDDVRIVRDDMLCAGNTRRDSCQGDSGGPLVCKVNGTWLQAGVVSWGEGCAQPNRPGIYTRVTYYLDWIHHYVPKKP

Row | Compound | Kd [µM]
1 | C[Si](C)(O[Si](C)(C)c1coc2ccc(C(=O)N3CCC(c4cccc(CN)c4)CC3)cc12)c1coc2ccc(C(=O)N3CCC(c4cccc(CN)c4)CC3)cc12 [#2d, compound #2d] | 0.0021
2 | C[Si](C)(O)c1coc2ccc(C(=O)N3CCC(c4cccc(CN)c4)CC3)cc12 [#2m, compound #2m] | 0.081
